According to ChEMBL document CHEMBL3393055, “6,6-Fused heterocyclic ureas as highly potent TRPV1 antagonists” (Bioorg Med Chem Lett, 2015):

Columns and labels:
[1] = molecular target: T1, Transient receptor potential cation channel subfamily V member 1 (Homo sapiens, UniProt Q8NER1); assay: Antagonist activity at human TRPV1 assessed as inhibition of capsaicin-induced effect by FLIPR assay
[2] = molecular target: T1, Transient receptor potential cation channel subfamily V member 1; assay: Antagonist activity at human TRPV1 assessed as inhibition of capsaicin-induced effect at 1 uM by FLIPR assay
[3] = molecular target: T1, Transient receptor potential cation channel subfamily V member 1; assay: Antagonist activity at human TRPV1 assessed as inhibition of pH-induced effect at 1 uM by FLIPR assay
[4] = molecular target: T1, Transient receptor potential cation channel subfamily V member 1; assay: Antagonist activity at human TRPV1 assessed as inhibition of NADA-induced effect at 1 uM by FLIPR assay
[5] = molecular target: T1, Transient receptor potential cation channel subfamily V member 1; assay: Antagonist activity at human TRPV1 assessed as inhibition of 45 degC heat-induced effect at 1 uM by FLIPR assay
[6] = tested on: Mus musculus; assay: Analgesic activity in formalin-induced mouse pain model at 0.3 mg/kg, po; assay type: functional
[7] = tested on: Mus musculus; assay: Analgesic activity in formalin-induced mouse pain model at 10 mg/kg, po; assay type: functional

T1 sequence (Q8NER1 whole entry): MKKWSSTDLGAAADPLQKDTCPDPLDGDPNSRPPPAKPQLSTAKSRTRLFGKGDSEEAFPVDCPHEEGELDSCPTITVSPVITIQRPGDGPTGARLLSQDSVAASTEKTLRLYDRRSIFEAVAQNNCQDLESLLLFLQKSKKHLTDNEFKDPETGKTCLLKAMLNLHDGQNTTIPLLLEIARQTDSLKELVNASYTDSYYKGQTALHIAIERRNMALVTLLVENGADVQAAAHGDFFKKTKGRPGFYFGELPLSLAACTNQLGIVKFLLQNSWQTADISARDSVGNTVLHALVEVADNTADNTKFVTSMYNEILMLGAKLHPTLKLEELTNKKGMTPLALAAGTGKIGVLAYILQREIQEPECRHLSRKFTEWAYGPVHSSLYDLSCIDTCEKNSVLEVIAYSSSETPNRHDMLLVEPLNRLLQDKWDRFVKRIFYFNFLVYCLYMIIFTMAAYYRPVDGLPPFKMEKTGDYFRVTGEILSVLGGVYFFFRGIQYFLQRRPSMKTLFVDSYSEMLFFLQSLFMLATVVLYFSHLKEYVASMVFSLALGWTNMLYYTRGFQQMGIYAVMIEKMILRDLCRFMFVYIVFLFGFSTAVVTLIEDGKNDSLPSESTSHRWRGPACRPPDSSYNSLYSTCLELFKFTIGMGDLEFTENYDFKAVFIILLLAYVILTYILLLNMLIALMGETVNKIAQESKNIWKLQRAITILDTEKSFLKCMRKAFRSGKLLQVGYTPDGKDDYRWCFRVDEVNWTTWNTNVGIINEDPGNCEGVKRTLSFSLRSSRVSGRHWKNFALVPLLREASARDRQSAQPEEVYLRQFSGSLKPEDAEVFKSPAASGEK

SMILES	Ki ([1]; read-out: Ki) [nM]	further results
CC1CCN(c2nc(C(F)(F)F)ccc2CNC(=O)Nc2ccc3ccncc3c2)CC1	8.4	
CC1CCN(c2nc(C(F)(F)F)ccc2CNC(=O)Nc2cccc3ccncc23)CC1	0.4	
CC1CCN(c2nc(C(F)(F)F)ccc2CNC(=O)Nc2ccc3ccccc3n2)CC1		Ki [1]: Not Active
CC1CCN(c2nc(C(F)(F)F)ccc2CNC(=O)Nc2nccc3cccnc23)CC1		Ki [1]: Not Active
CC1CCN(c2nc(C(F)(F)F)ccc2CNC(=O)Nc2cncc3ccccc23)CC1	1.8	
O=C(NCc1ccc(C(F)(F)F)cc1)Nc1cccc2cnccc12	18.3	
CC1CCN(c2nc(C(F)(F)F)ccc2CNC(=O)Nc2ccc3ncccc3c2)CC1		inhibition [2]: 40%
CC(C)(C)c1ccc(CNC(=O)Nc2cccc3cnccc23)cc1	13.8	
CC1CCN(c2nc(C(F)(F)F)ccc2CNC(=O)Nc2ccc3cnncc3c2)CC1	8.9	
CC1CCN(c2nc(C(F)(F)F)ccc2CNC(=O)Nc2cccc3cccnc23)CC1	91.6	
CC1CCN(c2nc(C(F)(F)F)ccc2CNC(=O)Nc2ccnc3ccccc23)CC1		Ki [1]: Agonist
CC1CCN(c2nc(C(F)(F)F)ccc2CNC(=O)Nc2ccc3cncnc3c2)CC1	7.8	
CC1CCN(c2nc(C(F)(F)F)ccc2CNC(=O)Nc2cc3ccccc3cn2)CC1		inhibition [2]: 10%
CC1CCN(c2nc(C(F)(F)F)ccc2CNC(=O)Nc2nccc3ccccc23)CC1		Ki [1]: Not Active
CC1CCN(c2nc(C(F)(F)F)ccc2CNC(=O)Nc2cccc3nccnc23)CC1	48.1	
CC1CCN(c2nc(C(F)(F)F)ccc2CNC(=O)Nc2cnc3ccccc3c2)CC1	9.5	
CC1CCN(c2nc(C(F)(F)F)ccc2CNC(=O)Nc2ccc3cccnc3c2)CC1	7.1	
CC1CCN(c2nc(C(F)(F)F)ccc2CNC(=O)Nc2ccc3ncncc3c2)CC1		Ki [1]: Agonist
CC1CCN(c2nc(C(F)(F)F)ccc2CNC(=O)Nc2cccc3cnccc23)CC1	0.2	IC50 [3]: Not Active; Ki [4]: 0.02 nM; IC50 [5]: 0.55 nM; MPE [6]: 18%; MPE [7]: 73%
CC1CCN(c2nc(C(F)(F)F)ccc2CNC(=O)Nc2cccc3ncccc23)CC1	0.7	
CC1CCN(c2nc(C(F)(F)F)ccc2CNC(=O)Nc2ccc3cnccc3c2)CC1	7.2	
